One assay has as its target T1, human NK2 receptor (Homo sapiens, UniProt P21452).
T1 construct: purchased Perkin Elmer biosignal Inc. 6110510
T1 sequence (P21452 1-398): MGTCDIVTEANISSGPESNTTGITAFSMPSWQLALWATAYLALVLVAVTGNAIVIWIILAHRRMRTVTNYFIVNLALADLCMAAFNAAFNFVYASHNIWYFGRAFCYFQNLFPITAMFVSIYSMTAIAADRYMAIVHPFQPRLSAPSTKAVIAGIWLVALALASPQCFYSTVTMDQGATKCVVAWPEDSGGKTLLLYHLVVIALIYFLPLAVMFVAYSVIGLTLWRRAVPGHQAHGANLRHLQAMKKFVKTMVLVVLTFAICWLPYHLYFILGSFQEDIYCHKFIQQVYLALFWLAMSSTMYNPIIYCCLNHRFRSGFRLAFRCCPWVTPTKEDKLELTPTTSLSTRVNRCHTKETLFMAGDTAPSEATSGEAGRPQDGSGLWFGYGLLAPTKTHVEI
The assay can be described thus: [3H]SR48968 competition binding assay. The settings on record: [3H]SR48968 displacement, membranes of CHO cells stably expressing recombinant human NK2 receptor; Ki from IC50 by Cheng-Prussoff. The essentials: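 Membranes from CHO cells stably expressing recombinant human NK2 were incubated 75 min at RT with [3H]SR48968 at its KD and 10 compound concentrations (0.0003–10 μM) in Tris-HCl pH 7.4, MnCl2, chymostatin, BSA. Filter-bound radioactivity was counted; Hill-fitted IC50 converted to Ki via Cheng-Prusoff.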

Assay [1] relates to mouse, gerbils and marmosets. As to conditions: cited from earlier work.
In the next assay the test system is rodents. The settings on record: elevated plus maze and light/dark test in rodents; cited from earlier work.

Consider `CN(C(=O)c1ccc(Cl)c(C2CC2)c1)[C@@H]1CN(C(=O)C2CCN(C(=O)C3(C)CC3)CC2)C[C@H]1c1ccc(Cl)c(Cl)c1` [Example 176, 4-Chloro-3-cyclopropyl-N-{(3S,4R)-4-(3,4-dichloro-phenyl)-1-[1-(1-methyl-cyclopropanecarbonyl)-piperidine-4-carbonyl]-pyrrolidin-3-yl}-N-methyl-benzamide], for which the Ki (usually the equilibrium dissociation constant of an inhibitor or competing ligand from its target) on human NK2 receptor came to 600 pM.

In the case of `CC(=O)NC1(c2ccccc2)CCN(CC[C@H](CN(C)C(=O)c2ccccc2)c2ccc(Cl)c(Cl)c2)CC1` [Saredutant], the “efficacy in procedures sensitive to anti-depressants” value in assay [1] is listed as “Efficacy”. In addition, the “efficacy in exploration based procedures sensitive to anxiolytics” value with rodents is “effective”.

These data come from patent US8404679B2, “Pyrrolidine derivatives as NK2 receptor antagonists” (Hoffmann-La Roche Inc., priority 2008, dated 2013).
